According to PubChem BioAssay AID200 (DTP/NCI, 2004):
Several values for one entry are separate records, joined by “and”; a condition that tells them apart may be missing. Equal entries are not always repeated. Toxic doses and inconclusive results are not listed. Where a SMILES comes first, the peptide text is derived from it.

Tested on: B6C3F1 mice, B16 melanoma ip, median survival T/C
Assay: NCI In Vivo Anticancer Drug Screen. Data for tumor model B16 Melanoma (intraperitoneal) in B6C3F1 mice
Settings: endpoint: median survival time, schedule: Q01DX009 (ip), higher = longer survival
Outline: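 Values are T/C ratios: the measurement in treated animals divided by that in vehicle-treated controls, using survival or tumor size in mice carrying transplantable tumors.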

[1] = dose: 12.5 mg/kg/injection, vehicle: distilled water + Tween-80
[2] = dose: 25.0 mg/kg/injection, vehicle: distilled water + Tween-80
[3] = dose: 50.0 mg/kg/injection, vehicle: distilled water + Tween-80
[4] = dose: 100.0 mg/kg/injection, vehicle: distilled water + Tween-80
[5] = dose: 200.0 mg/kg/injection, vehicle: distilled water + Tween-80
[6] = dose: 0.5 mg/kg/injection, vehicle: Klucel (hydroxypropylcellulose) (HPC)
[7] = dose: 200.0 mg/kg/injection, vehicle: Klucel (hydroxypropylcellulose) (HPC)
[8] = dose: 50.0 mg/kg/injection, vehicle: saline
[9] = dose: 100.0 mg/kg/injection, vehicle: saline
[10] = dose: 200.0 mg/kg/injection, vehicle: saline
[11] = dose: 12.5 mg/kg/injection, vehicle: saline with Tween-80
[12] = dose: 25.0 mg/kg/injection, vehicle: saline with Tween-80
[13] = dose: 50.0 mg/kg/injection, vehicle: saline with Tween-80
[14] = dose: 100.0 mg/kg/injection, vehicle: saline with Tween-80
[15] = dose: 200.0 mg/kg/injection, vehicle: saline with Tween-80
[16] = dose: 400.0 mg/kg/injection, vehicle: saline with Tween-80

CCOC(=O)c1ccc(NC(=O)Nc2nncs2)cc1
T/C (dose: 6.25 mg/kg/injection, vehicle: distilled water + Tween-80): 100 % of control
T/C [1]: 110 % of control
T/C [2]: 115 % of control
T/C [3]: 121 % of control
T/C [4]: 121 % of control
T/C [5]: 105 % of control

C=C(OP(=O)(OC)OC)Sc1ccccc1C
T/C (dose: 0.06 mg/kg/injection, vehicle: Klucel (hydroxypropylcellulose) (HPC)): 94 % of control
T/C (dose: 0.12 mg/kg/injection, vehicle: Klucel (hydroxypropylcellulose) (HPC)): 102 % of control
T/C (dose: 0.25 mg/kg/injection, vehicle: Klucel (hydroxypropylcellulose) (HPC)): 104 % of control
T/C (dose: 0.38 mg/kg/injection, vehicle: Klucel (hydroxypropylcellulose) (HPC)): 121 % of control
T/C [6]: 100 % of control
T/C (dose: 0.75 mg/kg/injection, vehicle: Klucel (hydroxypropylcellulose) (HPC)): 107 % of control

O=C(O)C1CCCN1C(=O)OCc1ccccc1 (stereo unspecified)
T/C (dose: 50.0 mg/kg/injection, vehicle: Klucel (hydroxypropylcellulose) (HPC)): 97 % of control
T/C [7]: 89 % of control

[Cl][Pt][Cl].[NH-]C(CO)C(=O)O (stereo unspecified)
T/C (dose: 3.13 mg/kg/injection, vehicle: water): 98 % of control
T/C (dose: 6.25 mg/kg/injection, vehicle: water): 106 % of control
T/C (dose: 12.5 mg/kg/injection, vehicle: water): 116 % of control and 107 % of control
T/C (dose: 25.0 mg/kg/injection, vehicle: water): 120 % of control
T/C (dose: 50.0 mg/kg/injection, vehicle: water): 114 % of control

Cc1cc([NH-])c([NH-])cc1C.[Cl][Pt+2][Cl]
T/C (dose: 1.25 mg/kg/injection, vehicle: saline with Tween-80): 112 % of control
T/C (dose: 10.0 mg/kg/injection, vehicle: saline with Tween-80): 161 % of control

CC(C)(O)/C=C/C(=O)[C@](C)(O)[C@H]1[C@H](O)C[C@@]2(C)[C@@H]3CC=C4[C@@H](C=C(O)C(=O)C4(C)C)[C@]3(C)C(=O)C[C@]12C
T/C (dose: 0.25 mg/kg/injection, vehicle: water): 99 % of control
T/C (dose: 0.5 mg/kg/injection, vehicle: water): 89 % of control
T/C (dose: 1.0 mg/kg/injection, vehicle: water): 89 % of control

CCC(C)C(NC(=O)CN)C(=O)O (stereo unspecified) (HELM PEPTIDE1{G.[CCC(C)C(N[*:1])C(=O)O]}$$$$V2.0)
T/C [8]: 92 % of control
T/C [9]: 92 % of control
T/C [10]: 92 % of control

NC(=O)CCC(NC(=O)OCC1c2ccccc2-c2ccccc21)C(=O)O (stereo unspecified)
T/C (dose: 100.0 mg/kg/injection, vehicle: Klucel (hydroxypropylcellulose) (HPC)): 98 % of control
T/C [7]: 93 % of control
T/C (dose: 400.0 mg/kg/injection, vehicle: Klucel (hydroxypropylcellulose) (HPC)): 94 % of control

CC(NC(=O)C1CCCN1C(=O)CN)C(=O)O (stereo unspecified)
T/C [9]: 105 % of control
T/C [10]: 92 % of control
T/C (dose: 400.0 mg/kg/injection, vehicle: saline): 96 % of control

COC(=O)C12OCC34C(CC5C(C)C6=CC(=O)OC6=CC5(C)C3C(O)C1O)OC(=O)C(O)C24 (stereo unspecified)
T/C [6]: 154 % of control
T/C (dose: 180.0 micrograms/kg/injection, vehicle: Klucel (hydroxypropylcellulose) (HPC)): 116 % of control
T/C (dose: 833.3 micrograms/kg/injection, vehicle: Klucel (hydroxypropylcellulose) (HPC)): 153 % of control
T/C (dose: 1388.8 micrograms/kg/injection, vehicle: Klucel (hydroxypropylcellulose) (HPC)): 178 % of control

O=C(/C=C(\Cl)C(=O)NO)NO
T/C (dose: 6.25 mg/kg/injection, vehicle: saline): 100 % of control and 105 % of control
T/C (dose: 12.5 mg/kg/injection, vehicle: saline): 91 % of control and 100 % of control
T/C (dose: 25.0 mg/kg/injection, vehicle: saline): 97 % of control and 104 % of control
T/C [8]: 108 % of control
T/C [9]: 91 % of control

CCOC(=O)C(C)(C)Oc1ccc(Cl)cc1
T/C [11]: 93 % of control and 105 % of control
T/C [12]: 93 % of control and 102 % of control
T/C [13]: 93 % of control and 101 % of control
T/C [14]: 102 % of control and 104 % of control
T/C [15]: 90 % of control

ClC(Cl)(Cl)C1=NCc2nnn(Cc3ccccc3)c2N1
T/C [1]: 101 % of control
T/C [11]: 105 % of control
T/C [2]: 96 % of control
T/C [12]: 110 % of control
T/C [3]: 93 % of control
T/C [13]: 108 % of control
T/C [4]: 91 % of control
T/C [14]: 105 % of control
T/C [5]: 101 % of control
T/C [15]: 95 % of control
T/C (dose: 400.0 mg/kg/injection, vehicle: distilled water + Tween-80): 101 % of control
T/C [16]: 95 % of control

O=C1CC(c2ccc(Cl)cc2Cl)Oc2ccc(Cl)cc21 (stereo unspecified)
T/C (dose: 3.13 mg/kg/injection, vehicle: saline with Tween-80): 100 % of control
T/C (dose: 6.25 mg/kg/injection, vehicle: saline with Tween-80): 93 % of control
T/C [11]: 88 % of control
T/C [12]: 100 % of control

C[C@@H]1CN(C(=O)CCOS(C)(=O)=O)[C@@H](C)CN1C(=O)CCOS(C)(=O)=O
T/C [10]: 172 % of control

NC1=NCN(C2OC(CO)C(O)C2O)C(=O)N1 (stereo unspecified)
T/C [8]: 108 % of control
T/C [9]: 105 % of control

COc1cccc2c1C(=O)c1c(O)c3c(c(O)c1C2=O)C[C@@](O)(C(=O)CO)C[C@@H]3OC1CC(N)CC(C)O1 (stereo partly specified)
T/C (dose: 0.18 mg/kg/injection, vehicle: water): 174 % of control
T/C (dose: 0.37 mg/kg/injection, vehicle: water): 231 % of control
T/C (dose: 0.38 mg/kg/injection, vehicle: water): 175 % of control
T/C (dose: 0.75 mg/kg/injection, vehicle: water): 187 % of control and 238 % of control
T/C (dose: 1.5 mg/kg/injection, vehicle: water): 181 % of control and 187 % of control

CCC(=O)[O][Bi]([c]1ccccc1)[c]1ccccc1
T/C (dose: 25.0 mg/kg/injection, vehicle: Klucel (hydroxypropylcellulose) (HPC)): 92 % of control

Nc1nc(N)c2c(ccc3c2ccn3Cc2cccc([N+](=O)[O-])c2)n1
T/C (dose: 0.19 mg/kg/injection, vehicle: saline with Tween-80): 107 % of control
T/C (dose: 0.2 mg/kg/injection, vehicle: saline with Tween-80): 102 % of control
T/C (dose: 0.38 mg/kg/injection, vehicle: saline with Tween-80): 98 % of control
T/C (dose: 0.4 mg/kg/injection, vehicle: saline with Tween-80): 101 % of control
T/C (dose: 0.75 mg/kg/injection, vehicle: saline with Tween-80): 116 % of control
T/C (dose: 0.78 mg/kg/injection, vehicle: saline with Tween-80): 103 % of control
T/C (dose: 1.5 mg/kg/injection, vehicle: saline with Tween-80): 93 % of control and 100 % of control
T/C (dose: 1.56 mg/kg/injection, vehicle: saline with Tween-80): 99 % of control
T/C (dose: 3.0 mg/kg/injection, vehicle: saline with Tween-80): 112 % of control and 103 % of control
T/C (dose: 6.0 mg/kg/injection, vehicle: saline with Tween-80): 108 % of control and 116 % of control

COC1(OC)C2C=CC1CC2
T/C [11]: 108 % of control and 98 % of control
T/C [12]: 101 % of control
T/C [13]: 113 % of control and 102 % of control
T/C [14]: 114 % of control and 100 % of control
T/C [15]: 100 % of control and 102 % of control
T/C [16]: 98 % of control

CC(=O)Nc1ccc(O)c(O)c1
T/C [11]: 109 % of control and 112 % of control
T/C [12]: 114 % of control and 117 % of control
T/C [13]: 104 % of control and 105 % of control
T/C [14]: 113 % of control and 101 % of control
T/C [15]: 113 % of control and 106 % of control
T/C [16]: 122 % of control and 106 % of control

CCOC(=O)C(CC(C)C)NC(=O)C(N)Cc1ccc(N(CCCl)CCCl)cc1 (stereo unspecified)
T/C (dose: 1.25 mg/kg/injection, vehicle: water): 113 % of control
T/C (dose: 2.5 mg/kg/injection, vehicle: water): 113 % of control and 102 % of control
